# Experimental data from patent US20160038439A1, “Use of 7-a-[9-(4,4,5,5,5-pentafluoropentylsulfinyl)nonyl]-estra-1,3,5(10)- triene-3,17B-diol and derivatives thereof” (XI'ANLIBANG PHARMACEUTICAL TECHNOLOGY CO., LTD., priority 2013, published 2016).
# Marks after values point to notes of the source that are not given here.
# Assays:
# TNF-α [1] = assay: TNF-α level in serum of rats with arthritis (ELISA); assay type: in vivo, SD rats
# Description: (§1) After inflamed model was successfully established in SD rats, the SD rats were randomly divided into model control group (12 rats), low, medium dose group (8 rats for each), and high dose group (12 rats) of test drug depending on body weight. Rats in the model control group were administered a blank fat emulsion injection (0.5 mL) by tail vein injection every other day for 7 days; rats in the low and medium dose group of test drug were administered a fat emulsion injection of a compound of Formula A (specifically including Compounds I-VI described hereafter) by tail vein injection every other day for 7 days; rats in the high dose group of test drug were administered a fat emulsion injection of a compound of Formula A by tail vein injection every other day for 14 days. 12 same models in the normal control group were also administered a blank fat emulsion injection. Indexes such as hindfoot joint score, hindfoot joint thickness measurement, TNF-α level in serum and hindfoot joint tissues, hindfoot joint pathological section and the like were used to evaluate efficacy of the drug.
# (§2) Compound I used in the present invention was purchased from Xi′ an Libang Pharmaceutical Co., Ltd.; Compounds II-IV were synthesized by the following method. SD rats used in the present invention were purchased from Super-B&K Laboratory Animal Corp. Ltd.; chicken type II collagen was purchased from Sigma, Lot No. 87H5227; rat tumor necrosis factor-α [TNF-α] enzyme-linked immunoassay kit (ELISA) was purchased from Shanghai Biovol Biotech Co., Ltd., Lot No. BV-E12102201.
# (§3) Chicken type II collagen was dissolved in 0.1 mol/L acetic acid at 4° C. while stirring so as to be thoroughly dissolved at a concentration of 2 mg/mL The resulting solution was put into a refrigerator at 4° C. overnight. Liquid paraffin and lanolin were mixed at a ratio of 2:1 (volume ratio), and the mixture was autoclaved to prepare an incomplete Freund's adjuvant (IFA). Bacillus Calmette Guerin (BCG) vaccine (60 mg) was inactivated at 80° C. for 1 hour and transferred to a mortar, into which was dropwise added IFA. After being uniformly grinded, the resulting mixture was pushed and sucked repeatedly by double-syringe to prepare a complete Freund's adjuvant (CFA), with the final concentration of BCG vaccine being 2 mg/mL. An equal amount of chicken type II collagen acid solution was mixed with CFA into a stable emulsion (containing 1 mg chicken type II collagen per milliliter).
# (§4) 12 female SD rats were randomly selected from 192 female SD rats as normal control group. The remaining 180 rats was disinfected with iodine tincture. After being deiodinated with 75% ethanol, each of the rat was administered 150 μL collagen emulsion by intradermal injection at the base of the tail, and was administered 100 μL collagen emulsion by intradermal injection at the vola pedis of right hindfoot. Thus, totally 250 μL for each rat was administered. 7 days later, an equal amount of collagen emulsion was intraperitoneal injected as a secondary immune.
# (§5) Animal grouping and administration: inflamed rats were divided into model control group, low, medium and high dose groups of test drug based on body weight.
# (§6) Rats in each group were scored for the hindfoot joint and measured for the thickness of ankle joint before being inflamed. Normal rats were taken blood from orbital venous plexus. The serum of the blood was separated out and cryopreserved at −20° C. to detect cytokines. Rats were scored for joint after being inflamed for 3 days, and were measured for the thickness of ankle joint before administration (on the 19th day since being inflamed), on the 3rd day and 8th day after administration (on the […] since being inflamed). Rats in each group were taken blood from orbital venous plexus when inflammation was severe (on the 23rd day after being inflamed). The serum of the blood was separated out and cryopreserved at −20° C. […]
# [2] = tested on: chicken type II collagen-induced arthritis model in SD rats; assay: Hindfoot joint score in chicken type II collagen-induced arthritis model in SD rats; assay type: in vivo; set-up: scale not given here; details: tail vein, every other day
# Description: as §1, §3, §4, §5
# Rats in each group were scored for the hindfoot joint and measured for the thickness of ankle joint before being inflamed. Normal rats were taken blood from orbital venous plexus. The serum of the blood was separated out and cryopreserved at −20° C. to detect cytokines. Rats were scored for joint after being inflamed for 3 days, and were measured for the thickness of ankle joint before administration (on the 19th day since being inflamed), on the 3rd day and 8th day after administration (on the […] since being inflamed). Rats in each group were taken blood from orbital venous plexus when inflammation was severe (on the 23rd day after being inflamed). The serum of the blood was separated out and cryopreserved at −20° C. 8 rats for each group were sacrificed on the 28th day after being inflamed and were taken blood from intraperitoneal vein. The serum of the blood was separated out and was subjected to serological detection (TNF-α). The rest of rats were sacrificed on the 35th day after being inflamed, and histology index detection was carried out
# [3] = tested on: chicken type II collagen-induced arthritis model in SD rats; assay: Pathological examination score of hindfoot ankle joint of rats with arthritis; assay type: in vivo; details: high dose group (1.40-2.16 mg/kg per compound), every other day for 14 days, n=4
# Description: as §1, §3
# as §4, with “Thus, totally 250 μL for each rat was administered. 7 days later, an equal amount of collagen emulsion was intraperitoneal injected as a secondary immune.” left out
# Rats in each group were scored for the hindfoot joint and measured for the thickness of ankle joint before being inflamed. […] Rats were scored for joint after being inflamed for 3 days, and were measured for the thickness of ankle joint before administration (on the 19th day since being inflamed), on the 3rd day and 8th day after administration (on the 20th day since being inflamed). […]
# TNF-α [4] = assay: TNF-α level in hindfoot ankle joint tissue of rats with arthritis; assay type: in vivo, SD rats
# Description: as §1, §2, §3, §4, §5, §6
# [5] = high dose group, the 3rd day after administration
# [6] = high dose group, the 8th day after administration
# [7] = low dose group, the 3rd day after administration
# [8] = low dose group, the 8th day after administration
# [9] = medium dose group, the 3rd day after administration
# [10] = medium dose group, the 8th day after administration
# [11] = left ankle joint, high dose group
# [12] = left ankle joint, low dose group
# [13] = left ankle joint, medium dose group
# [14] = right ankle joint, high dose group
# [15] = right ankle joint, low dose group
# [16] = right ankle joint, medium dose group
Molecule,TNF-α level in serum (mean ± SD) (TNF-α [1]; [5]) [pg/mL],TNF-α level in serum (mean ± SD) (TNF-α [1]; [6]) [pg/mL],TNF-α level in serum (mean ± SD) (TNF-α [1]; [7]) [pg/mL],TNF-α level in serum (mean ± SD) (TNF-α [1]; [8]) [pg/mL],TNF-α level in serum (mean ± SD) (TNF-α [1]; [9]) [pg/mL],TNF-α level in serum (mean ± SD) (TNF-α [1]; [10]) [pg/mL],TNF-α level in ankle (mean ± SD) (TNF-α [4]; [11]) [pg/mL],TNF-α level in ankle (mean ± SD) (TNF-α [4]; [12]) [pg/mL],TNF-α level in ankle (mean ± SD) (TNF-α [4]; [13]) [pg/mL],TNF-α level in ankle (mean ± SD) (TNF-α [4]; [14]) [pg/mL],TNF-α level in ankle (mean ± SD) (TNF-α [4]; [15]) [pg/mL],TNF-α level in ankle (mean ± SD) (TNF-α [4]; [16]) [pg/mL],other results
"7-α-[9-(4,4,5,5,5-pentafluoropentylsulfinyl)nonyl]-estra-1,3,5(10)-triene-3-acetyl-17-(undec-2-enoyl) [Compound VI]",28.27 ± 37.62,26.56 ± 18.06,47.22 ± 96.55,197.35 ± 231.02,13.08 ± 7.93,78.21 ± 88.90,12.05 ± 4.01,14.39 ± 3.52,13.98 ± 3.66,14.58 ± 2.79,15.31 ± 5.02,12.67 ± 5.23,"Mean value of hindfoot joint score ([2]; high dose group, before administration (baseline)): 5.3; Mean value of hindfoot joint score [2, 5]: 4.7**^#; Mean value of hindfoot joint score [2, 6]: 5.5; Mean value of hindfoot joint score ([2]; low dose group, before administration (baseline)): 4.6; Mean value of hindfoot joint score [2, 7]: 5.4**^##; Mean value of hindfoot joint score [2, 8]: 4.9; Mean value of hindfoot joint score ([2]; medium dose group, before administration (baseline)): 4.8; Mean value of hindfoot joint score [2, 9]: 4.6**; Mean value of hindfoot joint score [2, 10]: 5.5; Joint lesion score (mean ± SD) [3]: 1.88 ± 1.26"
"C[C@]12CC[C@@H]3c4ccc(O)cc4C[C@@H](CCCCCCCCC[S+]([O-])CCCC(F)(F)C(F)(F)F)[C@H]3[C@@H]1CC[C@@H]2O (stereo partly drawn) [Compound I, 7-α-[9-(4,4,5,5,5-pentafluoropentylsulfinyl)nonyl]-estra-1,3,5(10)-triene-3,17β-diol, reference compound]",13.48 ± 25.05,18.45 ± 12.72,50.15 ± 60.06,52.78 ± 67.16,31.55 ± 54.58,22.41 ± 25.25,8.66 ± 4.33,10.16 ± 5.82,9.57 ± 5.10,8.98 ± 7.44,10.71 ± 4.61,9.63 ± 3.02,
